Assay [1] concerns the target wild-type EGFR (Homo sapiens (Human), UniProt P00533). As to the kind of experiment: In vitro EGFR kinase activity assay (Z'-Lyte). Format: biochemical. The note with it: EGFR WT; read-out: Inhibitory activity on EGFR kinase (IC50, nM) WT.
Protocol: (§8) Inhibitory effects in vitro of the compounds provided in the present invention on EGFR kinase activity was tested as follows:
(§9) 10 concentration gradients, from 5.1×10^−11 mol/L to 1.0×10^−6 mol/L, were set for all of the compounds to be tested.
(§10) 10 μL of kinase reaction system comprised 2.5 μL of compound solution, 5 μL of Kinase/peptide mixture, and 2.5 μL of ATP solution. 5 μL of phosphopeptide solution was used in place of kinase/peptide mixture as 100% phosphorylation control. […] After thoroughly mixing the solution within the plate, the plate was incubated at room temperature for 1.5 hours. 5 μL of DevelopmentSolution was added into each well, and then the plate was incubated at room temperature for another 1 hour, and non-phosphorylated peptide was cleaved within this period. Finally, the reaction was quenched by adding 5 μL of Stop Reagent. The Plate was measured with EnVision Multilabel Reader (Perkin Elmer). Experimental data were calculated by using GraphPad Prism version 4.0. Each experiment was repeated more than three times.
Assay [2] addresses EGFR-L858R (Homo sapiens (Human), UniProt P00533, L858R). Kind of assay: In vitro EGFR kinase activity assay (Z'-Lyte). Format: biochemical. The note with it: read-out: Inhibitory activity on EGFR kinase (IC50, nM) L858R.
For assay [3], the target named is EGFR-L858R/T790M (Homo sapiens (Human), UniProt P00533, L858R/T790M). Kind of assay: In vitro EGFR kinase activity assay (Z'-Lyte). Format: biochemical. The note with it: read-out: Inhibitory activity on EGFR kinase (IC50, nM) T790M/L858R.
Assay [4] has as its system H1975 (non-small cell lung cancer cells, EGFR L858R/T790M). Kind of assay: Cell proliferation and growth inhibition analysis. Format: cell-based. The note with it: Homo sapiens, NCI-H1975, 72 hours, read-out: Inhibitory activity on cell proliferation (IC50, μM) H1975. The method, then: (§1) Cell proliferation was evaluated by MTS assay. Cells were exposed to the process conditions for 72 hours, and the number of cells for each cell line used in the experiment was adjusted according to the absorbance value (absorbance value at 490 nm was 1.3-2.2). 6 concentration gradients (0.1 nM-10 μM) were set for the compounds to be tested, with six parallel controls for each concentration.
(§2) H1975, HCC827, A549, BT474, MCF-7, SK-BR-3 cells were cultured in the corresponding medium. Upon recovery, the cells were passaged at least two times and then used in experiments. Cells in Log phase were trypsinized and resuspended in the medium. H1975 (1000 cells per well), BT474 (1500 cells per well), MCF-7 (1500 cells per well), HCC827 (2000 cells per well), SK-BR-3 (2000 cells per well), A549 (2000 cells per well) were seeded into 96-well plates, the volume was 100 μL, and 6 rows and 7 columns were set. The plate was placed in an incubator at 37° C. of 5% carbon dioxide overnight. Compounds were dissolved in DMSO to obtain the concentration of […], and then gradually diluted to obtain the concentration of compound as […], 0.1 μM, 0.01 μM, 0.001 μM, 0.0001 μM. 2 μL of compound solution was added into 998 μL of medium, and the resulting mixture was thoroughly mixed. 100 μL of mixture was added into 96-well plate. […] After the cells were cultured for 68 hours, 20 μL of MTT (5 mg/mL) was added. After 4 hours, the supernatant was discarded and 150 μL of DMSO was added. The resulting system was shaken for 10 minutes, and the plate was read with Synergy HT (Bio TeK) (OD490). The data was calculated by GraphPad Prism version 4.0, and IC50 was obtained by non-linear regression model using dose-response curve.

The test system of assay [5] is HCC827 (non-small cell lung cancer cells, EGFR del E746-A750). As to the kind of experiment: Cell proliferation and growth inhibition analysis. Format: cell-based. The note with it: Homo sapiens, 72 hours, read-out: Inhibitory activity on cell proliferation (IC50, μM) HCC827. The procedure:
as §1, §2

Assay [6] concerns A549 (non-small cell lung cancer cells, EGFR wild-type). As to the kind of experiment: Cell proliferation and growth inhibition analysis. Format: cell-based. The note with it: Homo sapiens, 72 hours, read-out: Inhibitory activity on cell proliferation (IC50, μM) A549. The procedure: as §1, with “Cell proliferation and growth inhibition analysis: H1975 (non-small cell lung cancer cells, EGFR^L858/T790M), HCC827 (non-small cell lung cancer cells, EGFR^del E746-A750), A549 (non-small cell lung cancer cells, EGFR wild-type), BT474 (breast cancer cells, Her2 overexpression), SK-BR-3 (breast cancer cells, Her2 overexpression), MCF-7 (breast cancer cells, […]) cells were obtained from ATCC. Cell proliferation” for “Cell proliferation”

Assay [7] relates to BT474 (breast cancer cells, Her2 overexpression). As to the kind of experiment: Cell proliferation and growth inhibition analysis. Format: cell-based. The note with it: Homo sapiens, BT-474, 72 hours, read-out: Inhibitory activity on cell proliferation (IC50, μM) BT474. The method, then: as §1, with “Cell proliferation and growth inhibition analysis: H1975 (non-small cell lung cancer cells, EGFR^L858/T790M), HCC827 (non-small cell lung cancer cells, EGFR^del E746-A750), A549 (non-small cell lung cancer cells, EGFR wild-type), BT474 (breast cancer cells, Her2 overexpression), SK-BR-3 (breast cancer cells, Her2 overexpression), MCF-7 (breast cancer cells, […]) cells were obtained from ATCC. Cell proliferation” for “Cell proliferation”

Assay [8] deals with MCF-7. Kind of assay: Cell proliferation and growth inhibition analysis. Format: cell-based. The note with it: Homo sapiens, MCF7; MCF-7 cells, 72 hours; read-out: Inhibitory activity on cell proliferation (IC50, μM) MCF-7. The method, then: as §1, with “Cell proliferation and growth inhibition analysis: H1975 (non-small cell lung cancer cells, EGFR^L858/T790M), HCC827 (non-small cell lung cancer cells, EGFR^del E746-A750), A549 (non-small cell lung cancer cells, EGFR wild-type), BT474 (breast cancer cells, Her2 overexpression), SK-BR-3 (breast cancer cells, Her2 overexpression), MCF-7 (breast cancer cells, […]) cells were obtained from ATCC. Cell proliferation” for “Cell proliferation”

The subject of assay [9] is SK-BR-3 (breast cancer cells, Her2 overexpression). Kind of assay: Cell proliferation and growth inhibition analysis. Format: cell-based. The note with it: Homo sapiens; SK-BR-3 cells, 72 hours; read-out: Inhibitory activity on cell proliferation (IC50, μM) SK-BR-3. The method, then: as §1, with “Cell proliferation and growth inhibition analysis: H1975 (non-small cell lung cancer cells, EGFR^L858/T790M), HCC827 (non-small cell lung cancer cells, EGFR^del E746-A750), A549 (non-small cell lung cancer cells, EGFR wild-type), BT474 (breast cancer cells, Her2 overexpression), SK-BR-3 (breast cancer cells, Her2 overexpression), MCF-7 (breast cancer cells, […]) cells were obtained from ATCC. Cell proliferation” for “Cell proliferation”

The target of assay [10] is BLK (Homo sapiens (Human), UniProt P51451). Kind of assay: BLK kinase activity assay (Caliper). The note with it: read-out: Inhibitory activity on kinase (IC50, nM) BLK. Format: biochemical. The procedure:
(§3) Preparation of 1× kinase matrix buffer and stop buffer.
(§4) Preparation of compound solution. The compound was dissolved in 100% DMSO to a concentration, which was 50 times of the final highest inhibiting-concentration. 100 μL of the compound solution as said above was transferred into wells of 96-well plate. The above compound solution was sequentially diluted to the final desired concentration. In two blank wells of same 96-well plate, 100 μL of 100% DMSO was added as no-compound and no-kinase control, and this plate was used as the original plate.
(§5) Preparation of intermediate plate. 10 μL of compound solution was transferred from the original plate to another 96-well plate as the intermediate plate; 90 μL of 1× kinase buffer was added into each well of the intermediate plate, and the intermediate plate was shaken for 10 min.
(§6) Preparation of assay plate. 5 μL of solution from each well of intermediate plate was added into a 384-well plate, and repeated controls were set.
(§7) Kinase reaction. 2.5× kinase solution and 2.5× peptide solution were prepared. 2.5× kinase solution was transferred into assay plate. Assay plate comprised 5 μL of the compound solution in 10% DMSO. 10 μL of 2.5× kinase solution was added in each well of 384-well assay plate. […] 2.5× peptide solution was added into each well. After incubated at 28° C. for an appropriate time, 25 μL of stop buffer was added to quench the reaction. Experimental data were collected in Caliper. Curve was fitted.

The target of assay [11] is FLT3 (Homo sapiens (Human), UniProt P36888). As to the kind of experiment: FLT3 kinase activity assay (Caliper). The note with it: read-out: Inhibitory activity on kinase (IC50, nM) FLT3. Format: biochemical. The method, then: as §3, §4, §5, §6, §7
In assay [12] the target is EGFR-T790M (Homo sapiens (Human), UniProt P00533, T790M). As to the kind of experiment: In vitro EGFR kinase activity assay (Z'-Lyte). The note with it: read-out: Inhibitory activity on EGFR kinase (IC50, nM) T790M.
Protocol: as §8, §9, §10
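Wherever Inhibitory activity on EGFR kinase (IC50, nM) L858R is given: Cell-free kinase reaction with peptide substrate and ATP, 1.5 h at room temperature, then development step cleaving non-phosphorylated peptide, 10-point dilution series 0.051–1000 nM, phosphopeptide as 100% phosphorylation control.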
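Wherever Inhibitory activity on EGFR kinase (IC50, nM) T790M/L858R is given: Cell-free kinase reaction with peptide substrate and ATP, 1.5 h at room temperature, development cleaving unphosphorylated peptide, 10-point dilution 0.051–1000 nM, phosphopeptide as 100% phosphorylation control.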
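Wherever Inhibitory activity on EGFR kinase (IC50, nM) WT is given: Ten-point dose series from 5.1×10^−11 to 1.0×10^−6 mol/L, kinase reaction 1.5 h at room temperature, then 1 h development cleaving unphosphorylated peptide, phosphopeptide as 100% phosphorylation control.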

Chain of BLK (P51451 whole entry): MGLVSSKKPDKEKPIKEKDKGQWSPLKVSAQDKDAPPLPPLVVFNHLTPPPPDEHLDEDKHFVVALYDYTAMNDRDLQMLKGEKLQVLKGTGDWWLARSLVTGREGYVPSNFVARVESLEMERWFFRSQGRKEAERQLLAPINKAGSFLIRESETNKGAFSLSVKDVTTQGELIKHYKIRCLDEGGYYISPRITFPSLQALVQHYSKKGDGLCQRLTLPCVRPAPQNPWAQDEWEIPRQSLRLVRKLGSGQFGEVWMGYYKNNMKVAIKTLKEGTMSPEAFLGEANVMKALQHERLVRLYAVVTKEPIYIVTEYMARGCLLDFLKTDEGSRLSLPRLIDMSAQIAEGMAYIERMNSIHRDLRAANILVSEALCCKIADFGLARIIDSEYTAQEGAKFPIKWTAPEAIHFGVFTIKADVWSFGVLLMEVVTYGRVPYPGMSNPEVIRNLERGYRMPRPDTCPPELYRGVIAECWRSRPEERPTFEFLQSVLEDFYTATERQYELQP
Chain of EGFR-T790M (P00533 25-1210 T790M): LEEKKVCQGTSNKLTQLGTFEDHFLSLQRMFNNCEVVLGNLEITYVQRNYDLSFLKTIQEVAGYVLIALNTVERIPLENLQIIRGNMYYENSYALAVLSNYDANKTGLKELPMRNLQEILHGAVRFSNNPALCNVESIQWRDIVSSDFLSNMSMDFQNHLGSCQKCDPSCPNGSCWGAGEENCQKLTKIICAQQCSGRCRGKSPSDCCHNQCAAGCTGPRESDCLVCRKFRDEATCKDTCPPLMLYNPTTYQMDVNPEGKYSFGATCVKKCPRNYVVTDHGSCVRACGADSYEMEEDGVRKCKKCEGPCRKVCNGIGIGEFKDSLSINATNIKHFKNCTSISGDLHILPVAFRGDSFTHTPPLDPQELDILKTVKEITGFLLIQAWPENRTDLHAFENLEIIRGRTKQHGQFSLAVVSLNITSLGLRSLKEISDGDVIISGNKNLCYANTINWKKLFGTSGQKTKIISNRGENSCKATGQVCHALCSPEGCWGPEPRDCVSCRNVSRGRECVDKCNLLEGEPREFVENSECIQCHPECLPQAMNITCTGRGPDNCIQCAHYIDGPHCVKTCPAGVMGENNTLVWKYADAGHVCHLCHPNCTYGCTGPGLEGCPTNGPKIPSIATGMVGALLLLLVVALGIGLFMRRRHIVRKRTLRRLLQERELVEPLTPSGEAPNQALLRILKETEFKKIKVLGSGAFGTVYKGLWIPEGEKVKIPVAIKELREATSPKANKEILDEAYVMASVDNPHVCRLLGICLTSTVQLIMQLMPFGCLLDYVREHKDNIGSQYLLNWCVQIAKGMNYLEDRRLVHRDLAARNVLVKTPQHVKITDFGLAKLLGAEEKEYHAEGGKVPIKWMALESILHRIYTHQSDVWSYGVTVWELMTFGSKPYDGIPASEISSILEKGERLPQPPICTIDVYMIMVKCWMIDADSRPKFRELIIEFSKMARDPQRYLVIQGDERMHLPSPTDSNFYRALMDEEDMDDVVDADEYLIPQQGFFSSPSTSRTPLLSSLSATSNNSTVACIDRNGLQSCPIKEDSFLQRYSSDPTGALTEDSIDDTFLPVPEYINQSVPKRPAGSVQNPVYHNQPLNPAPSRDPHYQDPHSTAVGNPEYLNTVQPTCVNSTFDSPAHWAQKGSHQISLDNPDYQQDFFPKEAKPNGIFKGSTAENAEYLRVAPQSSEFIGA
Chain of wild-type EGFR (P00533 25-1210): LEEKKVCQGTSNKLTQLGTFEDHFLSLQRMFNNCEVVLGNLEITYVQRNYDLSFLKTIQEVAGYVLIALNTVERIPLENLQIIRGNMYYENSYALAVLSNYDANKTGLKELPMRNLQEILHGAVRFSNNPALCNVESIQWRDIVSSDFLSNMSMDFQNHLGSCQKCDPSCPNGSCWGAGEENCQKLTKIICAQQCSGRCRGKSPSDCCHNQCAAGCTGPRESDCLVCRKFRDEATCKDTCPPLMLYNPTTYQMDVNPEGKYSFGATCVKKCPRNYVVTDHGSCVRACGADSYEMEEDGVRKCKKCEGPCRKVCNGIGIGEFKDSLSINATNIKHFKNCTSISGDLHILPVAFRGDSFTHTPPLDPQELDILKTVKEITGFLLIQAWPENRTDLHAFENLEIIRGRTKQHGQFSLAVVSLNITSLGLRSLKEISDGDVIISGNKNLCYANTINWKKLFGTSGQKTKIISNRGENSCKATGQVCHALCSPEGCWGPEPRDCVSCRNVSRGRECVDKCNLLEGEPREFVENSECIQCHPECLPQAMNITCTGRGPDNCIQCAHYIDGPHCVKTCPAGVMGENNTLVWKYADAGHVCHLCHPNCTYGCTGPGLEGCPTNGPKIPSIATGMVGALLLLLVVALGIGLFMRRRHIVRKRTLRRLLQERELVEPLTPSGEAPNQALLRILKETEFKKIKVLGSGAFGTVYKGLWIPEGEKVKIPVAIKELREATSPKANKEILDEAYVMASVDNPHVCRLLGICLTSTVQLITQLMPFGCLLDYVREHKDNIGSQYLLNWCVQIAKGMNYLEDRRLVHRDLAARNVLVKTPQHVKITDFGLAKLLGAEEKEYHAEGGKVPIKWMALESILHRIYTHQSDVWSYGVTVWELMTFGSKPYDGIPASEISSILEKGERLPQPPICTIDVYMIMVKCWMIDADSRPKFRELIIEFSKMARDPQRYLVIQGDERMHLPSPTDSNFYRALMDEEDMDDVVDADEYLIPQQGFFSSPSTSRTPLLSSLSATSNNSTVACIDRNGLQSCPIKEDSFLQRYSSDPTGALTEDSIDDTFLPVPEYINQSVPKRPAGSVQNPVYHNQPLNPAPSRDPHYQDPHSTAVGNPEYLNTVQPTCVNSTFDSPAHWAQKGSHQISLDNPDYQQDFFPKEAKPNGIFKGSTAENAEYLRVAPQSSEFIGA
Chain of FLT3 (P36888 27-993): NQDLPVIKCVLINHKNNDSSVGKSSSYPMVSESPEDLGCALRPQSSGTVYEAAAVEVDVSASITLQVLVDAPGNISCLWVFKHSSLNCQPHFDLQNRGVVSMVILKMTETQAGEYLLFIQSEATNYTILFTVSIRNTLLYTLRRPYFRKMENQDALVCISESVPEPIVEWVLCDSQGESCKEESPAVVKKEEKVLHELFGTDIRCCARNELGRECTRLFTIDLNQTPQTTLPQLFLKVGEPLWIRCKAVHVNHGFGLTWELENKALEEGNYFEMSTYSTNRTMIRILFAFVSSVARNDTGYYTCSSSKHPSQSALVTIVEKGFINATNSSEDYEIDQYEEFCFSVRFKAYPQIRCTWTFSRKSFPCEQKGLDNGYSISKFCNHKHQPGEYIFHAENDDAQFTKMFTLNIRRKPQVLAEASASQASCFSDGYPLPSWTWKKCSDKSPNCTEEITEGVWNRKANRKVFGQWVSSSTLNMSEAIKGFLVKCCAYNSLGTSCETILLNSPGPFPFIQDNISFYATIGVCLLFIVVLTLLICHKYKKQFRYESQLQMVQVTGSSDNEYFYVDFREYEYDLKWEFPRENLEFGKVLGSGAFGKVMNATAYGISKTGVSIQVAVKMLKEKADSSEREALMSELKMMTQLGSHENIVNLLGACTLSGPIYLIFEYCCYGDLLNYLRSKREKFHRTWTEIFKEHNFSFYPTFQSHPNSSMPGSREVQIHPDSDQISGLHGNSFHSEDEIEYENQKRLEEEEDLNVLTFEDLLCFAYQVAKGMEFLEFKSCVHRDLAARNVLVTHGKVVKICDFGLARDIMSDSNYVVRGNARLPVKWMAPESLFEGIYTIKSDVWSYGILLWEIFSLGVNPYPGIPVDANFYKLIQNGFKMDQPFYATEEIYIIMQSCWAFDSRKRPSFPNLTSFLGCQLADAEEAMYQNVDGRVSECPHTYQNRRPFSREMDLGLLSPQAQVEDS
Chain of EGFR-L858R (P00533 25-1210 L858R): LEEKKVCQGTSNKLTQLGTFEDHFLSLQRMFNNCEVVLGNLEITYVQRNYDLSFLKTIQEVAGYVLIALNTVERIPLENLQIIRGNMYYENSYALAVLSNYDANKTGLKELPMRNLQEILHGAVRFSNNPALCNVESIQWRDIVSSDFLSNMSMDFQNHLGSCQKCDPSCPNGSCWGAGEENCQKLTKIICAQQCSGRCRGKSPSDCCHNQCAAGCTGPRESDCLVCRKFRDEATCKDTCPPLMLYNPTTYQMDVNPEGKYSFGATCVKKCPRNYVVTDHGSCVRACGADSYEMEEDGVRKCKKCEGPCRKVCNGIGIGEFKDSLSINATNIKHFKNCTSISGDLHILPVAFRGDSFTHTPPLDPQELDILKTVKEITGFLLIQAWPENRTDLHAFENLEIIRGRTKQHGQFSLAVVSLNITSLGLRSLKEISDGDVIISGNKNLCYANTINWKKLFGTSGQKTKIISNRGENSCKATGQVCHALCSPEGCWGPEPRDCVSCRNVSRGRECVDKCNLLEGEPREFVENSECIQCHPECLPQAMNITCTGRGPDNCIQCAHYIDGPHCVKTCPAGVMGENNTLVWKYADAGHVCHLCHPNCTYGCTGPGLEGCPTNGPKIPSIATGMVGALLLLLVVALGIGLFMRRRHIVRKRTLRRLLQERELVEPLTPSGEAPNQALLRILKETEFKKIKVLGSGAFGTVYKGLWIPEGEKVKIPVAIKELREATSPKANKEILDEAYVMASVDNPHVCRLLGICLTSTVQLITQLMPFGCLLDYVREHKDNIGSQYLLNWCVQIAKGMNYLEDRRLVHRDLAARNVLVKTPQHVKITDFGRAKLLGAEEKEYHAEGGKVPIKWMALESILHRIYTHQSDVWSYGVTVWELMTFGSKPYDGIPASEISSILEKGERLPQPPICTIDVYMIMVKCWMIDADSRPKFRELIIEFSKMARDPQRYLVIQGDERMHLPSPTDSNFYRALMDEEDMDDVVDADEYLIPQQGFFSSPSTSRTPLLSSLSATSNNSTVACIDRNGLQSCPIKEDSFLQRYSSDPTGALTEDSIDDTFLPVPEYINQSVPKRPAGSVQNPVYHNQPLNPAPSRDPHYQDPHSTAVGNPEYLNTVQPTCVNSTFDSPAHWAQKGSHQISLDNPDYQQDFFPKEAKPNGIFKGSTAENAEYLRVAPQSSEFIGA

As for `COc1ccc(Nc2ncc3ncc(=O)n(-c4ccc(N)cc4)c3n2)cc1` [Compound 001], the IC50 is over 10000 nM in assay [1]; over 10000 nM in assay [2]; over 10000 nM in assay [3]; over 10 µM in assay [4]; over 10 µM in assay [5]; over 10 µM in [6]. For the same compound, the IC50 in [7] was over 10 µM; in assay [8] it was over 10 µM; in assay [9], over 10 µM; in assay [10], over 10000 nM; in [11], 27 nM; in assay [12], over 10000 nM.

Consider `C=CC(=O)Nc1ccc(-n2c(=O)c(C)nc3cnc(Nc4ccc(OC)cc4)nc32)cc1` [Compound 004, N-(4-(2-(4-methoxyphenylamino)-6-methyl-7-oxo-8(7H)-pteridin-yl)phenyl)acrylamide], for which the IC50 in [1] was 3180 nM; in assay [2], 4880 nM; in [3], over 10000 nM; in assay [4], over 10 µM; in [5] it was 3.33 µM; in assay [6] it was over 10 µM. Also, the IC50 in assay [7] is over 10 µM; in assay [8], over 10 µM; in assay [9], over 10 µM; in assay [10] it was over 10000 nM; in assay [11], 206 nM; in assay [12] it was over 10000 nM.

`CCC(=O)Nc1cccc(-n2c(=O)cnc3cnc(Nc4ccc(OC)cc4)nc32)c1` [Compound 007, N-(3-(2-(4-methoxyphenylamino)-7-oxo-8(7H)-pteridin-yl)phenyl) propionamide]: the IC50 in [1] is over 10000 nM; in [2], over 10000 nM; in [3], over 10000 nM; in assay [4], over 10 µM; in [5], over 10 µM; in assay [6], over 10 µM. Also, the IC50 is over 10 µM in assay [7]; over 10 µM in assay [8]; over 10 µM in [9]; over 10000 nM in [10]; 1490 nM in assay [11]; over 10000 nM in [12].

Take `CCC(=O)Nc1ccc(-n2c(=O)cnc3cnc(Nc4ccc(OC)cc4)nc32)cc1` [Compound 008, N-(4-(2-(4-methoxyphenylamino)-7-oxo-8(7H)-pteridin-yl)phenyl) propionamide]: the IC50 is over 10000 nM in [1]; over 10000 nM in [2]; over 10000 nM in assay [3]; over 10 µM in [4]; over 10 µM in assay [5]; 6.12 µM in assay [6]. The IC50 in [7] was over 10 µM; in assay [8], over 10 µM; in assay [9] it was over 10 µM; in assay [10], over 10000 nM; in assay [11], 115 nM; in assay [12], over 10000 nM.

For the compound `C=CC(=O)Nc1ccc(-n2c(=O)cnc3cnc(Nc4ccc(N5CCOCC5)cc4)nc32)cc1` [Compound 003, N-(4-(2-(4-morpholino-phenylamino)-7-oxo-8(7H)-pteridin-yl)phenyl)acrylamide], the IC50 is 8010 nM in [1]; 4080 nM in assay [2]; 3300 nM in assay [3]; over 10 µM in assay [4]; 3.01 µM in assay [5]; over 10 µM in assay [6]. Moreover, the IC50 in [7] was over 10 µM; in assay [8], over 10 µM; in assay [9] it was over 10 µM; in [10], 4170 nM; in assay [11], 137 nM; in assay [12], 8700 nM.

For `C=CC(=O)Nc1cccc(-n2c(=O)cnc3cnc(Nc4ccc(N(CC)CC)cc4)nc32)c1` [Compound 023, N-(3-(2-(4-(diethylamino)phenylamino)-7-oxo-8(7H)-pteridin-yl)phenyl) acrylamide], the IC50 in [1] was determined as 23.1 nM; in assay [2], 16.3 nM; in [3], 5.57 nM; in assay [4], 0.477 µM; in assay [5] it was 0.031 µM; in [10], 83 nM. For the same compound, in [11], the IC50 is 1760 nM.

On to `C=CC(=O)Nc1ccc(-n2c(=O)cnc3cnc(Nc4ccc(Cl)cc4)nc32)cc1` [Compound 016, N-(4-(2-(4-chlorophenylamino)-7-oxo-8(7H)-pteridin-yl)phenyl) acrylamide], for which the IC50 in [1] is 7580 nM; in assay [2], 116 nM; in [3], 1490 nM; in assay [4], 20.8 µM; in assay [5] it was 68.7 µM; in [10], over 10000 nM. The IC50 in assay [11] came to 358 nM.

`C=CC(=O)Nc1ccc(-n2c(=O)cnc3cnc(Nc4ccccc4)nc32)cc1` [Compound 014, N-(4-(7-oxo-2-(phenylamino)-8(7H)-pteridin-yl)phenyl) acrylamide]: the IC50 amounted to 16.1 nM in assay [1]; 26.4 nM in assay [2]; 113 nM in [3]; 77.8 µM in assay [4]; 68.1 µM in [5]; 7480 nM in assay [10]. In addition, the IC50 in assay [11] stood at 129 nM.

For the compound `C=CC(=O)Oc1ccc(-n2c(=O)cnc3cnc(Nc4ccc(OC)cc4)nc32)cc1` [Compound 011, 4-(2 (4-methoxyphenylamino)-7-oxo-8(7H)-pteridin-yl)phenyl acrylate], the IC50 in [1] turned out to be 67 nM; in assay [2], 84.8 nM; in [3], 70.3 nM; in assay [4] it was 5.6 µM; in [5], 2.29 µM; in assay [10] it was 89 nM. For the same compound, in assay [11], the IC50 is 48 nM.

Consider `C=CC(=O)Nc1cccc(-n2c(=O)cnc3cnc(Nc4ccc(N5CCCCC5)cc4)nc32)c1` [Compound 021, N-(3-(7-oxo-2-(4-(1-piperidinyl)phenylamino)-8(7H)-pteridinyl)phenyl) acrylamide], for which the IC50 in [1] came out at 19.7 nM; in assay [2], 11.7 nM; in assay [3] it was 5.49 nM; in assay [4], 0.238 µM; in assay [5], 0.02 µM; in [10], 83 nM. Besides, the IC50 in [11] worked out at 878 nM.
